These are literature values, as cited in US7662599B2, “Nucleic acids and polypeptides involved in the production of cryptophycin” (priority 2004, dated 2010).

The conditions of the data set: comparison in words.

As for `COc1ccc(C[C@H]2NC(=O)/C=C/C[C@@H]([C@H](C)[C@H]3O[C@@H]3c3ccccc3)OC(=O)[C@H](CC(C)C)OC(=O)[C@H](C)CNC2=O)cc1Cl` [Cryptophycin 1], the “activity relative to other cryptophycins” value was “the most active natural compound”.
